For assay [1], the target named is T1, BAF3 FL KIT EX11DEL (Homo sapiens, UniProt P10721, cells depend on it, form not given).
T1 construct: "BAF3 FL KIT EX11DEL"
As to the kind of experiment: c-Kit assay: Ba/F3 KIT mutant viability (Cell Titer-Glo, 72 hours). The class given is cell-based. The following applies: viability after 72 hours. The method, then: (§1) KIT cDNAs were synthesized by GenScript and cloned into the pLVX-IRES-Puro vector (Clontech). Viral particles were produced by transfecting pLVX-IRES-puro vectors containing KIT mutant genes into HEK293 cells (Invitrogen) using the Trans-Lentiviral ORF Packaging Kit (Thermo Scientific). 48 hours post-transfection, virus-containing supernatants were harvested and incubated for another 48-72 hours with parental Ba/F3 cells (DSMZ) in the presence of 10 ng/mL […] (R&D Systems). Transduced Ba/F3 cells were then selected by IL-3 withdrawal and puromycin (0.5-1 μg/mL, Invitrogen).
(§2) Cell lines (i.e., EX11DEL, EX11DEL/D816H, EX11DEL/T670I, and EX11DEL/V654A) were plated into 384 well plates using RPMI 1640 supplemented with 10% FBS at densities that produced linear growth and incubated at 37° C. in 5% (v/v) CO2. Cells were treated with eight concentrations of compound over a 4-fold dilution (10 μM to 0.61 nM) and viability was assessed using Cell Titer-Glo assay (Promega) after 72 hours. Data were plotted as percent viability relative to vehicle-treated cells. Dose-responses curves were generated and used to calculate IC50 values.

Assay [2] addresses T2, BAF3 FL KIT EX11DEL/D816H (Homo sapiens, UniProt P10721, D816H, cells depend on it, form not given).
T2 construct: "BAF3 FL KIT EX11DEL/ D816H"
Described as above. The class given is cell-based. The following applies: viability after 72 hours. The method, then:
as §1, §2

For assay [3], the target named is T3, BAF3 FL KIT EX11DEL/V654A (Homo sapiens, UniProt P10721, V654A, cells depend on it, form not given).
T3 construct: "BAF3 FL KIT EX11DEL/ V654A"
The description is as above. The class given is cell-based. The following applies: viability after 72 hours. As for the experimental part:
as §1, §2

In assay [4] the target is T4, BAF3 FL KIT EX11DEL/T6701 (Homo sapiens, UniProt P10721, T670I, cells depend on it, form not given).
T4 construct: "BAF3 FL KIT EX11DEL/ T6701"
The assay is described as above. Format: cell-based. The following applies: EX11DEL/T6701, viability after 72 hours. As for the experimental part:
as §1, §2

Assay [5] has as its system gastrointestinal stromal tumors (GIST). The following applies: third line therapy; cited from earlier work.

T1 sequence (P10721 with tags, fused parts or gaps DEL557-558): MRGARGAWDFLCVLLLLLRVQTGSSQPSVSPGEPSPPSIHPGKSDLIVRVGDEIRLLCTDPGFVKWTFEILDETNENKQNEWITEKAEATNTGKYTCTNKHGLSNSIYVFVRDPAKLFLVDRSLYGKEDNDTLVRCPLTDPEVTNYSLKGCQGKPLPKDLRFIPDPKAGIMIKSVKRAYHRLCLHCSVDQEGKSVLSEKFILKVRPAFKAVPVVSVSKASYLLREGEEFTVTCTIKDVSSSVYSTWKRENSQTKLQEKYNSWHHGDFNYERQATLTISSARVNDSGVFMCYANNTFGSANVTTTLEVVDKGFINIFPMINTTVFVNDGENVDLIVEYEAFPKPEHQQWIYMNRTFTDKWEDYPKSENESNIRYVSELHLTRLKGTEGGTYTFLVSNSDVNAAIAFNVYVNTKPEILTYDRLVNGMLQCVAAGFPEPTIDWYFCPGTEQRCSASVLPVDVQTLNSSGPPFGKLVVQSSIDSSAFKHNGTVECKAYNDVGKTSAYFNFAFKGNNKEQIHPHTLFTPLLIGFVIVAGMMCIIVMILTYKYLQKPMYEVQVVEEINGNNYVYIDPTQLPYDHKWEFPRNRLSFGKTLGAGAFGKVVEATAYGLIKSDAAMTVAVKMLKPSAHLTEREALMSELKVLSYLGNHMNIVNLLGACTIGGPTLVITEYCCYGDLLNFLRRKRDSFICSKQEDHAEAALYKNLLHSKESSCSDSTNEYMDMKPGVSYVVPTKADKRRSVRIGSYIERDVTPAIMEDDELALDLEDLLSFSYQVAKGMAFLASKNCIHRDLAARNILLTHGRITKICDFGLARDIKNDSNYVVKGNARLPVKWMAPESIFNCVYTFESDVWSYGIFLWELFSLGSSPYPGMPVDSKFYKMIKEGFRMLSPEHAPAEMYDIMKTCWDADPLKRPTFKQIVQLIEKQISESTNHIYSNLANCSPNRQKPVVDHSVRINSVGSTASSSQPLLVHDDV
T2 sequence (P10721 with tags, fused parts or gaps DEL557-558/D816H, form open): as the sequence (P10721 with tags, fused parts or gaps DEL557-558) above, with D814H counted along it
T3 sequence (P10721 with tags, fused parts or gaps DEL557-558/V654A, form open): as the sequence (P10721 with tags, fused parts or gaps DEL557-558) above, with V652A counted along it
T4 sequence (P10721 with tags, fused parts or gaps DEL557-558/T670I, form open): as the sequence (P10721 with tags, fused parts or gaps DEL557-558) above, with T668I counted along it

On to `COCCn1cc(-n2cnc3cc(C#Cc4cc(NC(=O)c5cc(C(F)(F)F)ccn5)ccc4C)ccc32)cn1` [Compound I-38, N-(3-((1-(1-(2-methoxyethyl)-1H-pyrazol-4-yl)-1H-benzo[d]imidazol-5-yl)ethynyl)-4-methylphenyl)-4-(trifluoromethyl)picolinamide], for which the GI50 in assay [1] was below 10 nM; in assay [2], 50 to 100 nM; in assay [3], 10 to 50 nM; in assay [4] it was 10 to 50 nM.

For `Cc1ccc(NC(=O)c2cc(C(F)(F)F)ccn2)cc1C#Cc1ccc2c(c1)ncn2-c1cnn(CCO)c1` [Compound I-39, N-(3-((1-(1-(2-hydroxyethyl)-1H-pyrazol-4-yl)-1H-benzo[d]imidazol-5-yl)ethynyl)-4-methylphenyl)-4-(trifluoromethyl)picolinamide], the GI50 in assay [1] is below 10 nM; in assay [2], 10 to 50 nM; in assay [3] it was 10 to 50 nM; in assay [4] it was below 10 nM.

With `Cc1ccc(NC(=O)c2cc(C(F)(F)F)ccn2)cc1C#Cc1ccc2c(c1)ncn2-c1cnn(C2CCN(C)CC2)c1` [Compound I-40], the 50% growth inhibitory concentration (GI50) is below 10 nM in assay [1], 100 to 10000 nM in assay [2], 100 to 10000 nM in assay [3] and 10 to 50 nM in assay [4].

As to `Cc1ccc(NC(=O)c2cc(C(F)(F)F)ccn2)cc1C#Cc1ccc2c(c1)ncn2-c1cnn(CCN(C)C)c1` [Compound I-41, N-(3-((1-(1-(2-(dimethylamino)ethyl)-1H-pyrazol-4-yl)-1H-benzo[d]imidazol-5-yl)ethynyl)-4-methylphenyl)-4-(trifluoromethyl)picolinamide], the GI50 was below 10 nM in assay [1], 100 to 10000 nM in assay [2], 50 to 100 nM in assay [3] and 10 to 50 nM in assay [4].

As for `CCN(CC)CCn1cc(-n2cnc3cc(C#Cc4cc(NC(=O)c5cc(C(F)(F)F)ccn5)ccc4C)ccc32)cn1` [Compound I-42, N-(3-((1-(1-(2-(diethylamino)ethyl)-1H-pyrazol-4-yl)-1H-benzo[d]imidazol-5-yl)ethynyl)-4-methylphenyl)-4-(trifluoromethyl)picolinamide], the GI50 in assay [1] lay in the range of 10 to 50 nM; in assay [2] it was 100 to 10000 nM; in assay [3], 50 to 100 nM; in assay [4], 10 to 50 nM.

As for `Cc1ccc(NC(=O)c2cc(C(F)(F)F)ccn2)cc1C#Cc1ccc2c(c1)ncn2-c1cn[nH]c1` [Compound I-43, N-(3-((1-(1H-pyrazol-4-yl)-1H-benzo[d]imidazol-5-yl)ethynyl)-4-methylphenyl)-4-(trifluoromethyl)picolinamide], the GI50 in assay [1] is below 10 nM; in assay [2], 50 to 100 nM; in assay [3] it was 100 to 10000 nM; in assay [4] it was 50 to 100 nM.

In the case of `Cc1ccc(NC(=O)c2cc(C(F)(F)F)ccn2)cc1C#Cc1ccc2c(c1)ncn2-c1cnn(C)c1` [Compound I-44, N-(4-methyl-3-((1-(1-methyl-1H-pyrazol-4-yl)-1H-benzo[d]imidazol-5-yl)ethynyl)phenyl)-4-(trifluoromethyl)picolinamide], the 50% growth inhibitory concentration (GI50) was below 10 nM in assay [1], 10 to 50 nM in assay [2], 10 to 50 nM in assay [3] and 10 to 50 nM in assay [4].

In the case of `Cc1ccc(NC(=O)c2cc(C(F)(F)F)ccn2)cc1C#Cc1ccc2c(c1)ncn2C` [Compound I-45, N-(4-methyl-3-((1-methyl-1H-benzo[d]imidazol-5-yl)ethynyl)phenyl)-4-(trifluoromethyl)picolinamide], the GI50 lay within 10 to 50 nM in assay [1], 50 to 100 nM in assay [2], 50 to 100 nM in assay [3] and 10 to 50 nM in assay [4].

Turning to `Cc1ccc(NC(=O)c2ccc(CN3CCN(C)CC3)c(C(F)(F)F)c2)cc1C#Cc1ccc2c(c1)ncn2-c1cnn(C)c1` [Compound I-46, N-(4-methyl-3-((1-(1-methyl-1H-pyrazol-4-yl)-1H-benzo[d]imidazol-5-yl)ethynyl)phenyl)-4-((4-methylpiperazin-1-yl)methyl)-3-(trifluoromethyl)benzamide], the GI50 in assay [1] is 10 to 50 nM; in assay [2], 100 to 10000 nM; in assay [3], 100 to 10000 nM; in assay [4], 50 to 100 nM.

As for `Cc1ccc(NC(=O)c2ccc(CN3CCCC3)c(C(F)(F)F)c2)cc1C#Cc1ccc2c(c1)ncn2-c1cnn(C)c1` [Compound I-47, N-(4-methyl-3-((1-(1-methyl-1H-pyrazol-4-yl)-1H-benzo[d]imidazol-5-yl)ethynyl)phenyl)-4-(pyrrolidin-1-ylmethyl)-3-(trifluoromethyl)benzamide], the GI50 lay in the range of 10 to 50 nM in assay [1], 100 to 10000 nM in assay [2], 100 to 10000 nM in assay [3] and 50 to 100 nM in assay [4].

For the molecule `Cc1ccc(NC(=O)c2ccc(CN3CCOCC3)c(C(F)(F)F)c2)cc1C#Cc1ccc2c(c1)ncn2-c1cnn(C)c1` [Compound I-48, N-(4-methyl-3-((1-(1-methyl-1H-pyrazol-4-yl)-1H-benzo[d]imidazol-5-yl)ethynyl)phenyl)-4-(morpholinomethyl)-3-(trifluoromethyl)benzamide], the 50% growth inhibitory concentration (GI50) in assay [1] is below 10 nM; in assay [2], 50 to 100 nM; in assay [3], 50 to 100 nM; in assay [4] it was 10 to 50 nM.

With `Cn1cc(-n2cnc3cc(C#Cc4cccc(NC(=O)c5cc(C(F)(F)F)ccn5)c4)ccc32)cn1` [Compound I-49, N-(3-((1-(1-methyl-1H-pyrazol-4-yl)-1H-benzo[d]imidazol-5-yl)ethynyl)phenyl)-4-(trifluoromethyl)picolinamide], the GI50 was below 10 nM in assay [1], 100 to 10000 nM in assay [2], 50 to 100 nM in assay [3] and 10 to 50 nM in assay [4].

Turning to `Cn1cc(-n2cnc3cc(C#Cc4cccc(C(=O)Nc5cc(C(F)(F)F)ccn5)c4)ccc32)cn1` [Compound I-50, 3-((1-(1-methyl-1H-pyrazol-4-yl)-1H-benzo[d]imidazol-5-yl)ethynyl)-N-(4-(trifluoromethyl)pyridin-2-yl)benzamide], the concentration for 50% growth inhibition (GI50) is below 10 nM in assay [1], 100 to 10000 nM in assay [2], 50 to 100 nM in assay [3] and below 10 nM in assay [4].

In the case of `Cn1cc(-n2cnc3cc(C#Cc4cc(C(=O)Nc5cc(C(F)(F)F)ccn5)ccc4F)ccc32)cn1` [Compound I-51, 4-fluoro-3-((1-(1-methyl-1H-pyrazol-4-yl)-1H-benzo[d]imidazol-5-yl)ethynyl)-N-(4-(trifluoromethyl)pyridin-2-yl)benzamide], the concentration for 50% growth inhibition (GI50) was below 10 nM in assay [1], 100 to 10000 nM in assay [2], 10 to 50 nM in assay [3] and below 10 nM in assay [4].

As for `Cn1cc(-n2cnc3cc(C#Cc4cc(NC(=O)c5cc(C(F)(F)F)ccn5)ccc4F)ccc32)cn1` [Compound I-52, N-(4-fluoro-3-((1-(1-methyl-1H-pyrazol-4-yl)-1H-benzo[d]imidazol-5-yl)ethynyl)phenyl)-4-(trifluoromethyl)picolinamide], the 50% growth inhibitory concentration (GI50) is below 10 nM in assay [1], 100 to 10000 nM in assay [2], 50 to 100 nM in assay [3] and below 10 nM in assay [4].

On to `CNC(=O)c1cc(Oc2ccc(NC(=O)Nc3ccc(Cl)c(C(F)(F)F)c3)c(F)c2)ccn1` [Regorafenib], for which, in assay [5], the ORR was 4.5% and the “median PFS” value was 4.8 months.

Source of the values: patent publication US11117883B2 (Ariad Pharmaceuticals, Inc., priority 2016, dated 2021).
